Assay results from patent US11306121B2, “Composition for muscle relaxation” (CAREGEN CO., LTD., priority 2018, dated 2022).
Like-named read-outs stand apart in the source and are kept apart here. Residues, ends and D or L forms follow the SMILES beside them.

What was measured:
[1] = 1,000 ppm in sterile distilled water, stored at 45° C., maximum observation time of 75 days
[2] = 1,000 ppm in sterile distilled water, warmed at 121° C., maximum warming time of 30 minutes

## CC[C@H](C)[C@H](NC(=O)[C@H](CC(C)C)NC(=O)[C@H](Cc1ccccc1)NC(=O)[C@@H](N)CCCCN)C(=O)N[C@@H](CCCCN)C(=O)O [peptide of the present invention, KFLIK] (H-KFLIK-OH; N-terminus and C-terminus assumed)
[1]
  stability of the peptide (HPLC assay): maintained
[2]
  stability of the peptide (HPLC assay): maintained
